In PubChem BioAssay AID1918945 (Molecular Pharmacology Branch, DTP, NCI, 2023):

System: 883617-216-R-J1-PDC complex spheroid viability
Assay: Anticancer human tumor 883617-216-R-J1-PDC patient-derived bladder carcinoma cell line growth inhibition
Conditions: for IC50: curve of first compound; for viability, T/C: stronger effect = lower value
Procedure, shortened: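 Complex spheroids of tumor cells with HUVEC and human MSCs, exposed to iadademstat combined with other agents. Each agent tested in half-log steps from near clinical Cmax (else 10 microM top), DMSO ≤0.25%.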

[1] = second compound 0.1 µM, first compound 0.000316 µM
[2] = second compound 0.1 µM, first compound 0.001 µM
[3] = second compound 0.1 µM, first compound 0.00316 µM
[4] = second compound 0.1 µM, first compound 0.01 µM
[5] = second compound 0.1 µM, first compound 0.0316 µM
[6] = second compound 0.1 µM, first compound 0.1 µM
[7] = second compound 0.316 µM, first compound 0.000316 µM
[8] = second compound 0.316 µM, first compound 0.001 µM
[9] = second compound 0.316 µM, first compound 0.00316 µM
[10] = second compound 0.316 µM, first compound 0.01 µM
[11] = second compound 0.316 µM, first compound 0.0316 µM
[12] = second compound 0.316 µM, first compound 0.1 µM
[13] = second compound 1 µM, first compound 0.000316 µM
[14] = second compound 1 µM, first compound 0.001 µM
[15] = second compound 1 µM, first compound 0.00316 µM
[16] = second compound 1 µM, first compound 0.01 µM
[17] = second compound 1 µM, first compound 0.0316 µM
[18] = second compound 1 µM, first compound 0.1 µM
[19] = second compound 3.16 µM, first compound 0.000316 µM
[20] = second compound 3.16 µM, first compound 0.001 µM
[21] = second compound 3.16 µM, first compound 0.00316 µM
[22] = second compound 3.16 µM, first compound 0.01 µM
[23] = second compound 3.16 µM, first compound 0.0316 µM
[24] = second compound 3.16 µM, first compound 0.1 µM
[25] = second compound 10 µM, first compound 0.000316 µM
[26] = second compound 10 µM, first compound 0.001 µM
[27] = second compound 10 µM, first compound 0.00316 µM
[28] = second compound 10 µM, first compound 0.01 µM
[29] = second compound 10 µM, first compound 0.0316 µM
[30] = second compound 10 µM, first compound 0.1 µM
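Note: exposure lasted seven days after three days of spheroid growth.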
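Throughout, for viability, T/C: 100% = DMSO vehicle control luminescence.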

| Structure (SMILES) | IC50 (second compound 0.1 µM) [nM] | IC50 (second compound 0.316 µM) [nM] | IC50 (second compound 1 µM) [nM] | IC50 (second compound 3.16 µM) [nM] | IC50 (second compound 10 µM) [nM] | viability, T/C [3] [%] | viability, T/C [4] [%] | viability, T/C [5] [%] | viability, T/C [6] [%] | viability, T/C [9] [%] | viability, T/C [10] [%] | viability, T/C [11] [%] | viability, T/C [12] [%] | viability, T/C [15] [%] | viability, T/C [16] [%] | viability, T/C [17] [%] | viability, T/C [18] [%] | viability, T/C [21] [%] | viability, T/C [22] [%] | viability, T/C [23] [%] | further results |
| --- | --- | --- | --- | --- | --- | --- | --- | --- | --- | --- | --- | --- | --- | --- | --- | --- | --- | --- | --- | --- | --- |
| CC(C)CC(NC(=O)C(Cc1ccccc1)NC(=O)c1cnccn1)B(O)O (stereo not given) + NC1CC1c1ccc(-c2cccc(O)c2)cc1 | 0.874 | 0.885 | 0.949 | 0.798 | 0.581 | 0.61 | 0.03 | 0.03 | 0.12 | 0.43 | 0.02 | 0.02 | 0.12 | 0.86 | 0.02 | 0.02 | 0.56 | 1.57 | 0.04 | 0.04 | viability, T/C [1]: 104%; viability, T/C [2]: 42.8%; viability, T/C [7]: 108%; viability, T/C [8]: 43.1%; viability, T/C [13]: 124%; viability, T/C [14]: 46.5%; viability, T/C [19]: 108%; viability, T/C [20]: 35.9%; viability, T/C [24]: 0.3%; viability, T/C [25]: 82.5%; viability, T/C [26]: 21%; viability, T/C [27]: 0.27%; viability, T/C [28]: 0.21%; viability, T/C [29]: 0.61%; viability, T/C [30]: 0.22% |
| CC(C)CC(NC(=O)CNC(=O)c1cc(Cl)ccc1Cl)B1OC(=O)CC(CC(=O)O)(C(=O)O)O1 (stereo not given) + NC1CC1c1ccc(-c2cccc(O)c2)cc1 | 3.66 | 3.45 | 2.66 | 2.61 | 1.86 | 49.6 | 21.4 | 0.86 | 0.21 | 50.4 | 18 | 1 | 0.16 | 39.5 | 18.4 | 0.85 | 0.15 | 37.4 | 19.5 | 0.76 | viability, T/C [1]: 95.3%; viability, T/C [2]: 97.8%; viability, T/C [7]: 123%; viability, T/C [8]: 121%; viability, T/C [13]: 105%; viability, T/C [14]: 108%; viability, T/C [19]: 97.7%; viability, T/C [20]: 93.3%; viability, T/C [24]: 0.15%; viability, T/C [25]: 81.1%; viability, T/C [26]: 69.3%; viability, T/C [27]: 33.2%; viability, T/C [28]: 10.2%; viability, T/C [29]: 0.25%; viability, T/C [30]: 0.36% |
| COc1cc(Nc2ncc3c(n2)-c2ccc(Cl)cc2C(c2c(F)cccc2OC)=NC3)ccc1C(=O)O + NC1CC1c1ccc(-c2cccc(O)c2)cc1 | 30.4 | 30.5 | 20.6 | 18.8 | 16.9 | 92.4 | 76.6 | 48.8 | 37.8 | 109 | 67.8 | 52.6 | 37.6 | 106 | 60.9 | 43.2 | 39.7 | 81.8 | 63.1 | 38.8 | viability, T/C (second compound 0.1 µM, first compound 0.316 µM): 37.3%; viability, T/C (second compound 0.1 µM, first compound 1 µM): 33.4%; viability, T/C (second compound 0.316 µM, first compound 0.316 µM): 36.7%; viability, T/C (second compound 0.316 µM, first compound 1 µM): 36%; viability, T/C (second compound 1 µM, first compound 0.316 µM): 34.5%; viability, T/C (second compound 1 µM, first compound 1 µM): 36.5%; viability, T/C [24]: 37.2%; viability, T/C (second compound 3.16 µM, first compound 0.316 µM): 36.6%; viability, T/C (second compound 3.16 µM, first compound 1 µM): 31.5%; viability, T/C [27]: 72.7%; viability, T/C [28]: 54.7%; viability, T/C [29]: 46.3%; viability, T/C [30]: 31.6%; viability, T/C (second compound 10 µM, first compound 0.316 µM): 35.1%; viability, T/C (second compound 10 µM, first compound 1 µM): 32.6% |
